Assay results taken from patent publication US7723358B2, “Aroyl-O-piperidine derivatives for the treatment of diabetes-related problems” (Merck Patent GmbH, priority 2004, dated 2010).

Assays:
[1] = tested on: apo B secretion in HepG2 cells; assay: Secretion of apo B in the HepG2 human cell line (sandwich-ELISA); type: cell-based; settings: 24 hours incubation, culture supernatant, read-out: IC50, concentration that produces a 50% inhibition of apo B secretion in the HepG2 cells
Method: Analysis of the Secretion of apo B in the HepG2 Human Cell Line:
The activity of a compound according to the invention can be evaluated by measuring the inhibition of apo B secretion in HepG2 cells.
The HepG2 cells (ECACC—No. 85011430) are used as model in the study of the in vitro hepatic secretion of lipoproteins (Dixon J. and Ginsberg H., J., Lipid. Res., 1993, 34, 167-179).
The HepG2 cells are cultured in Dulbecco's modified Eagle's medium comprising 10% foetal calf serum (DMEM and FBS—Gibco) in 96-well plates under an atmosphere of 5% carbon dioxide for 24 hours (about 70% confluence).
The test compounds are dissolved at a concentration of 2 or 10 mM in dimethyl sulfoxide (DMSO). Serial dilutions (1:3.16) are made in DMSO and are added (1:200—Robot Multimek Beckman) to the growth medium (200 μL) and then finally incubated for 24 hours in the various wells containing the HepG2 cells.
The 24-hour culture supernatant diluted to 1:5 (phosphate-buffered saline:PBS comprising 1% bovine serum albumin) is tested according to a sandwich-ELISA method specific for human apo B.
The results are expressed in terms of IC50, i.e. the concentration that produces a 50% inhibition of apo B secretion in the HepG2 cells.

[2] = target: T1, microsomal triglyceride transfer protein (MTP) (Mesocricetus auratus, UniProt P55158); assay: Inhibition of MTP activity: transfer of [3H]-triolein from donor liposomes to biotinylated LDL, SPA; type: biochemical; settings: MTP from golden hamster liver; incubation 18-24 hours at 37° C.; read-out: IC50, concentration that allows a 50% inhibition of MTP
T1 construct: The supernatant comprising the soluble MTP is dialysed against Tris/HCl 150 mM; from tissue; host or cells: golden hamster liver microsomes, deoxycholate-solubilised supernatant, dialysed
T1 sequence (P55158 19-895): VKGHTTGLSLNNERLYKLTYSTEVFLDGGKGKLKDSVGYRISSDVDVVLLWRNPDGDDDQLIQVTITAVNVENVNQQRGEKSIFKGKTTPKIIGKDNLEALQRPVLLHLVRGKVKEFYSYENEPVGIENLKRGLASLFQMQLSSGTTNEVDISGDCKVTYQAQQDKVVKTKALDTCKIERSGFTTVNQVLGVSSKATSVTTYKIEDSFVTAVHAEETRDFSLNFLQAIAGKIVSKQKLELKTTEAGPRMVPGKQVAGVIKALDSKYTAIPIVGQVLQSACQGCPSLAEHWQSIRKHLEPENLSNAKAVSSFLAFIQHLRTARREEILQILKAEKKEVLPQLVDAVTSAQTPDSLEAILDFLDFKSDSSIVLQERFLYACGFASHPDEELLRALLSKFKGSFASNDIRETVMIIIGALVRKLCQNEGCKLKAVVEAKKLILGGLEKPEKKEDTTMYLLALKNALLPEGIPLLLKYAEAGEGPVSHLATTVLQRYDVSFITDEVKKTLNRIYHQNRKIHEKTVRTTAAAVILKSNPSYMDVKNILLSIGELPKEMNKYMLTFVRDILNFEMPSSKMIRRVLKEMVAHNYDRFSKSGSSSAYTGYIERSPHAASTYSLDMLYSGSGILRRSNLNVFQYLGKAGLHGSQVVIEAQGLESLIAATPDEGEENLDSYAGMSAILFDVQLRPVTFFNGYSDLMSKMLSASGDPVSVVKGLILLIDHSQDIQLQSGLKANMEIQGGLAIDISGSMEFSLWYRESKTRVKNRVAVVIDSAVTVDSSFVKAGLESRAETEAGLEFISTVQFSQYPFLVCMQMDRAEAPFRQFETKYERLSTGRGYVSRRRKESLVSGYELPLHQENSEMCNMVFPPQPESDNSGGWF
How it was run: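 Soluble MTP was extracted with deoxycholate from golden hamster liver microsomes. It was incubated with [3H]-triolein/phosphatidylcholine donor liposomes, biotinylated LDL acceptors and compound in DMSO in HEPES/NaCl/BSA buffer, pH 7.4, for 18-24 h at 37° C. Transfer was read with streptavidin SPA beads, and IC50 was taken as 50% inhibition of transfer.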

Structure (SMILES)	IC50 [1]	IC50 [2]
COC(=O)c1ccc(NC(=O)N2CCC(Oc3cccc(NC(=O)c4cccc(C)c4-c4ccc(OC(F)(F)F)cc4)c3)CC2)cc1 [Example 55, methyl 4-[[[4-[3-[[[6-methyl-4′-(trifluoro-methoxy)[1,1′-biphenyl]-2-yl]carbonyl]-amino]phenoxy]-1-piperidinyl]carbonyl]-amino]benzoate]	46.6 nM	208 nM
CCCCOC(=O)CNC(=O)N1CCC(Oc2cccc(NC(=O)c3cccc(C)c3-c3ccc(OC(F)(F)F)cc3)c2)CC1 [Example 44, butyl N-[[4-[3-[[[6-methyl-4′-(trifluorometh-oxy)[1,1′-biphenyl]-2-yl]carbonyl]amino]-phenoxy]-1-piperidinyl]carbonyl]glycinate]	7.4 nM	171 nM
COc1ccc(CC(=O)N2CCC(Oc3cccc(NC(=O)c4cccc(C)c4-c4ccc(OC(F)(F)F)cc4)c3)CC2)cc1 [Example 101, N-[3-[[1-[2-(4-methoxyphenyl)acetyl]-4-piperidinyl]oxy]phenyl]-6-methyl-4′-(trifluoromethoxy)[1,1′-biphenyl]-2-carboxamide]	92.6 nM	160 nM
COc1ccc(CNC(=O)N2CCC(Oc3cccc(NC(=O)c4cccc(C)c4-c4ccc(OC(F)(F)F)cc4)c3)CC2)cc1 [Example 52, N-[(4-methoxyphenyl)methyl]-4-[3-[[[6-methyl-4′-(trifluoromethoxy)[1,1′-biphenyl]-2-yl]carbonyl]amino]phenoxy]-1-piperidinecarboxamide]	66.3 nM	195 nM
C=CCNC(=O)N1CCC(Oc2cccc(NC(=O)c3cccc(C)c3-c3ccc(OC(F)(F)F)cc3)c2)CC1 [Example 32, 4-[3-[[[6-methyl-4′-(trifluoromethoxy)[1,1′-biphenyl]-2-yl]carbonyl]amino]phenoxy]-N-2-propenyl-1-piperidinecarboxamide]		161 nM
Cc1cccc(C(=O)Nc2cccc(OC3CCN(S(=O)(=O)c4cccc5nonc45)CC3)c2)c1-c1ccc(OC(F)(F)F)cc1 [Example 20, N-[3-[[1-(2,1,3-benzoxadiazol-4-yl-sulfonyl)-4-piperidinyl]oxy]phenyl]-6-methyl-4′-(trifluoromethoxy)[1,1′-biphenyl]-2-carboxamide]		392 nM
O=C(Nc1cccc(OC2CCN(C(=O)c3ccno3)CC2)c1)c1ccccc1-c1ccc(OC(F)(F)F)cc1 [Example 115, N-[3-[[1-(5-isoxazolylcarbonyl)-4-piperi-dinyl]oxy]phenyl]-4′-(trifluoromethoxy)-[1,1′-biphenyl]-2-carboxamide]		433 nM
Cc1cccc(C(=O)Nc2cccc(OC3CCN(C(=O)c4ccco4)CC3)c2)c1-c1ccc(OC(F)(F)F)cc1 [Example 111, N-[3-[[1-(2-furanylcarbonyl)-4-piperidinyl]-oxy]phenyl]-6-methyl-4′-(trifluorometh-oxy)[1,1′-biphenyl]-2-carboxamide]		409 nM
Cc1cccc(C(=O)Nc2cccc(OC3CCN(C(=O)c4cccs4)CC3)c2)c1-c1ccc(OC(F)(F)F)cc1 [Example 99, 6-methyl-N-[3-[[1-(2-thienylcarbonyl)-4-piperidinyl]oxy]phenyl]-4′-(trifluorometh-oxy)[1,1′-biphenyl]-2-carboxamide]		416 nM

The next molecules have a lower IC50 [2] than those just listed; values first:

IC50 [1]	IC50 [2]	Structure (SMILES)
54.1 nM	139 nM	Cc1cccc(C(=O)Nc2cccc(OC3CCN(C(=O)c4ccno4)CC3)c2)c1-c1ccc(OC(F)(F)F)cc1 [Example 100, N-[3-[[1-(5-isoxazolylcarbonyl)-4-piperi-dinyl]oxy]phenyl]-6-methyl-4′-(trifluoro-methoxy)[1,1′-biphenyl]-2-carboxamide]
68.4 nM	130 nM	COc1ccc(C(=O)N2CCC(Oc3cccc(NC(=O)c4cccc(C)c4-c4ccc(OC(F)(F)F)cc4)c3)CC2)cc1OC [Example 103]
67.1 nM	101 nM	COc1ccc(C(=O)N2CCC(Oc3cccc(NC(=O)c4cccc(C)c4-c4ccc(OC(F)(F)F)cc4)c3)CC2)cc1 [Example 98, N-[3-[[1-(4-methoxybenzoyl)-4-piperidin-yl]oxy]phenyl]-6-methyl-4′-(trifluorometh-oxy)[1,1′-biphenyl]-2-carboxamide]
22.2 nM	100 nM	C/C=C/C(=O)N1CCC(Oc2cccc(NC(=O)c3cccc(C)c3-c3ccc(OC(F)(F)F)cc3)c2)CC1 [Example 128, 6-methyl-N-[3-[[1-[(2E)-1-oxo-2-butenyl]-4-piperidinyl]oxy]phenyl]-4′-(trifluorometh-oxy)[1,1′-biphenyl]-2-carboxamide]
75.8 nM	72.8 nM	COc1ccc(NC(=O)N2CCC(Oc3cccc(NC(=O)c4cccc(C)c4-c4ccc(OC(F)(F)F)cc4)c3)CC2)cc1 [Example 26]
13.7 nM	69.1 nM	Cc1cccc(C(=O)Nc2cccc(OC3CCN(C(=O)NCCc4ccccc4)CC3)c2)c1-c1ccc(OC(F)(F)F)cc1 [Example 40, 4-[3-[[[6-methyl-4′-(trifiuoromethoxy)[1,1′-biphenyl]-2-yl]carbonyl]amino]phenoxy]-N-(2-phenylethyl)-1-piperidinecarbox-amide]
25.2 nM	55.5 nM	Cc1cccc(C(=O)Nc2cccc(OC3CCN(C(=O)OCC(C)C)CC3)c2)c1-c1ccc(OC(F)(F)F)cc1 [Example 8, 2-methylpropyl 4-[3-[[[6-methyl-4′-(trifluoromethoxy)[1,1-biphenyl]-2-yl]carbonyl]amino]phenoxy]-1-piperidine-carboxylate]
7.9 nM	51.8 nM	Cc1cccc(C(=O)Nc2cccc(OC3CCN(C(=O)Oc4ccc([N+](=O)[O-])cc4)CC3)c2)c1-c1ccc(OC(F)(F)F)cc1 [Example 9, 4-nitrophenyl 4-[3-[[[6-methyl-4′-(trifluoro-methoxy)[1,1′-biphenyl]-2-yl]carbonyl]-amino]phenoxy]-1-piperidinecarboxylate]
67.8 nM	51.3 nM	COC(=O)c1ccccc1NC(=O)N1CCC(Oc2cccc(NC(=O)c3cccc(C)c3-c3ccc(OC(F)(F)F)cc3)c2)CC1 [Example 36, methyl 2-[[[4-[3-[[[6-methyl-4′-(trifluoro-methoxy)[1,1′-biphenyl]-2-yl]carbonyl]-amino]phenoxy]-1-piperidinyl]carbonyl]-amino]benzoate]
10.6 nM	49.2 nM	Cc1cccc(C(=O)Nc2cccc(OC3CCN(S(C)(=O)=O)CC3)c2)c1-c1ccc(OC(F)(F)F)cc1 [Example 3, 6-methyl-N-[3-[[1-(methylsulfonyl)-4-piperidinyl]oxy]phenyl]-4′-(trifluoro-methoxy)[1,1′-biphenyl]-2-carboxamide]
33.1 nM	45.5 nM	CCCCCCNC(=O)N1CCC(Oc2cccc(NC(=O)c3cccc(C)c3-c3ccc(OC(F)(F)F)cc3)c2)CC1 [Example 41, N-hexyl-4-[3-[[[6-methyl-4′-(trifluorometh-oxy)[1,1′-biphenyl]-2-yl]carbonyl]amino]-phenoxy]-1-piperidinecarboxamide]
15.9 nM	42.5 nM	Cc1cccc(C(=O)Nc2cccc(OC3CCN(S(=O)(=O)Cc4ccccc4)CC3)c2)c1-c1ccc(OC(F)(F)F)cc1 [Example 16]
4.6 nM	42.2 nM	COC(=O)N1CCC(Oc2cccc(NC(=O)c3ccccc3-c3ccc(C(F)(F)F)cc3)c2)CC1 [Example 72, methyl 4-[3-[[[4′-(trifluoromethyl)[1,1′-biphenyl]-2-yl]carbonyl]amino]phenoxy]-1-piperidinecarboxylate]
